Measured values reported in patent EP4603105A1, “PHARMACEUTICAL COMPOSITION CONTAINING CYCLIC COMPOUND HAVING SELECTIVE KRAS INHIBITORY EFFECT AGAINST HRAS AND NRAS” (CHUGAI SEIYAKU KABUSHIKI KAISHA, priority 2022, dated 2024).
*1 amine or outer side, *2 acyl side, *3 side chain or, on linkers, in order; H or OH if unused. Where a SMILES comes first, the peptide text is derived from it. Bridges are numbered along the chain shown (N, C = ends). [ ]: non-standard residue; d: D form. The star is where a group is joined. hPhe(3-Cl-4-CF3) = N[C@@H](CCc1ccc(C(F)(F)F)c(Cl)c1)C(=O)O; X34 = COCCN([C@@H](Cc1ccc(C(F)(F)F)cc1)C(=O)[*:2])[*:1]; NPrPhe(4-CF3) = CCCN[C@@H](Cc1ccc(C(F)(F)F)cc1)C(=O)O; NMePhe(4-Me) = CN[C@@H](Cc1ccc(C)cc1)C(=O)O; NMeGly(cPent) = CN[C@H](C(=O)O)C1CCCC1; Hyp = O=C(O)[C@@H]1C[C@@H](O)CN1; NMeD = CN[C@@H](CC(=O)O)C(=O)O; NMeL = CN[C@@H](CC(C)C)C(=O)O; Morpholide = C1CN(*)CCO1; NMeA = CN[C@@H](C)C(=O)O; Ac5c = NC1(C(=O)O)CCCC1; Aze = O=C(O)[C@@H]1CCN1; Ac4c = NC1(C(=O)O)CCC1; Sar = CNCC(=O)O

Legend:
[1] = target: GDP-bound NRAS wild-type protein (Homo sapiens, UniProt P01111); assay: Binding to NRAS by surface plasmon resonance (SPR), KD and KD ratio to KRAS
Summary of the method: (§1)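 Biotinylated GDP-bound RAS was captured at about 100–300 RU. Running buffer: HBS pH 7.4, 10 mM MgCl2, 10 µM GDP, 1 mM DTT, 0.01% Tween 20, 4% DMSO.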

[2] = target: HRAS wild-type protein (Homo sapiens, UniProt P01112); assay: Binding to HRAS by surface plasmon resonance (SPR), KD and KD ratio to KRAS
Summary of the method: as §1

[3] = tested on: human lung cancer strain NCI-H441; type: cell-based
Summary of the method: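 Step one: dispense the test compound in serial DMSO dilutions. Step three: add the reagent and measure […].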

[4] = ratio of KD value for GDP-bound NRAS wild-type protein to KD value for KRAS (SPR)
[5] = ratio of KD value for HRAS wild-type protein to KD value for KRAS (SPR)
[6] = ratio of KD for GDP-bound NRAS wild-type protein to KD for KRAS
[7] = ratio of KD for HRAS wild-type protein to KD for KRAS

Sequence of HRAS wild-type protein (P01112 whole entry): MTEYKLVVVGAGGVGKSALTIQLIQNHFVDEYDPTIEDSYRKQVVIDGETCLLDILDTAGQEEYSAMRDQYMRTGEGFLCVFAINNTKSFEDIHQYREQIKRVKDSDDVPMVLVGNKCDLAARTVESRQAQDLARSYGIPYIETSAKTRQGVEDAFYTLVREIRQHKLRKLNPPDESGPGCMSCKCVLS
Sequence of GDP-bound NRAS wild-type protein (P01111 whole entry): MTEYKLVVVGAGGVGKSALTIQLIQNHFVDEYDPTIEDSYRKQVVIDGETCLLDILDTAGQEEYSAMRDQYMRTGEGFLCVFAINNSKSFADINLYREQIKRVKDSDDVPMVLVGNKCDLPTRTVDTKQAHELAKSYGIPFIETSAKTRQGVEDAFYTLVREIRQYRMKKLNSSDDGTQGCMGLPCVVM

Structure (SMILES)	IC50 [3]	NRAS /KRAS [1, 4]	HRAS /KRAS [2, 5]	NRAS /KRAS [1, 6]	HRAS /KRAS [2, 7]
CCCN(C)C(=O)[C@@H]1CC(=O)N(C)[C@@H](COC)C(=O)N[C@@H]([C@@H](C)CC)C(=O)N(C)CC(=O)N(C)[C@H]2C/C=C\CCN(C2=O)[C@@H](Cc2ccc(C(F)(F)F)cc2)C(=O)N(C)CC(=O)N[C@@H](CCc2ccc(C(F)(F)F)c(OC)c2)C(=O)N2C[C@H](OCC)C[C@H]2C(=O)NC2(CC(C)(C)C2)C(=O)N(C)[C@@H](C2CCCC2)C(=O)N1C [PP1656]	1.5 nM	AA (a compound having 20 or more is denoted as AA)	A (a compound having 10 or more and less than 20 is denoted as A)	–	–
CCO[C@@H]1C[C@H]2C(=O)NC3(CCCC3)C(=O)N(C)[C@@H](C3CCCC3)C(=O)N(C)[C@H](C(=O)N(C)C)CC(=O)N(C)[C@@H](CC(C)C)C(=O)N[C@@H]([C@@H](C)CC)C(=O)N(C)CC(=O)N(C)[C@H]3C[C@@H](C)CCN(C3=O)[C@@H](Cc3ccc(C(F)(F)F)cc3)C(=O)N(C)CC(=O)N[C@@H](CCc3cc(F)c(C(F)(F)F)c(F)c3)C(=O)N2C1 [PP1017]	5 nM	–	–	C (A compound having a KD ratio of 0.1 or more and less than 3 is denoted as C)	B (a compound having 3 or more and less than 10 is denoted as B)
CCO[C@@H]1C[C@H]2C(=O)NC3(CC(F)(F)C3)C(=O)N(C)[C@@H](C(CC)CC)C(=O)N3CCC[C@@H]3CC(=O)N(C)[C@@H](CC3CC3)C(=O)N[C@@H]([C@@H](C)CC)C(=O)N(C)CC(=O)N(C)[C@H]3C/C=C\CCN(C3=O)[C@@H](Cc3ccc(C(F)(F)F)cc3)C(=O)N(C)CC(=O)N[C@@H](CCc3cc(F)c(C(F)(F)F)c(F)c3)C(=O)N2C1 [PP1614]	54.2 nM	A (a compound having 10 or more and less than 20 is denoted as A)	A (a compound having 10 or more and less than 20 is denoted as A)	–	–
CC[C@H](C)[C@@H]1NC(=O)[C@H](CC(C)C)N(C)C(=O)C[C@@H](C(=O)N2CCOCC2)N(C)C(=O)[C@H](C2CCCC2)N(C)C(=O)C2(CCCC2)NC(=O)[C@@H]2CCCN2C(=O)[C@H](CCc2ccc(C(F)(F)F)c(Cl)c2)NC(=O)CN(C)C(=O)[C@H](Cc2ccc(C(F)(F)F)cc2)N(CCOC)C(=O)CN(C)C(=O)CN(C)C1=O [PP0132] ([NMeL]I[Sar][Sar][X34][Sar][hPhe(3-Cl-4-CF3)]P[Ac5c][NMeGly(cPent)][NMeD]-Morpholide; lactam N-11)	14.8 nM	–	–	C (A compound having a KD ratio of 0.1 or more and less than 3 is denoted as C)	C (A compound having a KD ratio of 0.1 or more and less than 3 is denoted as C)

Now from value to molecule, other results behind:

IC50 [3]	Structure (SMILES)	NRAS /KRAS [1, 4]	HRAS /KRAS [2, 5]	NRAS /KRAS [1, 6]	HRAS /KRAS [2, 7]
2.6 nM	CCO[C@@H]1C[C@H]2C(=O)NC3(CC(C)(C)C3)C(=O)N(C)[C@@H](C3CCCC3)C(=O)N(C)[C@H](C(=O)N(C)C)CC(=O)N(C)[C@@H](CC3CC3)C(=O)N[C@@H]([C@@H](C)CC)C(=O)N(C)CC(=O)N(C)[C@H]3C/C=C\CCN(C3=O)[C@@H](Cc3ccc(C(F)(F)F)cc3)C(=O)N(C)CC(=O)N[C@@H](CCc3ccc(C(F)(F)F)c(OC)c3)C(=O)N2C1 [PP1563]	A (a compound having 10 or more and less than 20 is denoted as A)	A (a compound having 10 or more and less than 20 is denoted as A)	–	–
6.3 nM	CC[C@H](C)[C@@H]1NC(=O)[C@H](CC(C)C)N(C)C(=O)C[C@@H](C(=O)N2CCOCC2)N(C)C(=O)[C@H](C2CCCC2)N(C)C(=O)C2(CCCC2)NC(=O)[C@@H]2CCCN2C(=O)[C@H](CCc2ccc(C(F)(F)F)c(Cl)c2)NC(=O)CN(C)C(=O)[C@H](Cc2ccc(C)cc2)N(C)C(=O)[C@@H]2CCN2C(=O)[C@H](C)N(C)C1=O [PP0001] ([NMeL]I[NMeA][Aze][NMePhe(4-Me)][Sar][hPhe(3-Cl-4-CF3)]P[Ac5c][NMeGly(cPent)][NMeD]-Morpholide; lactam N-11)	–	–	C (A compound having a KD ratio of 0.1 or more and less than 3 is denoted as C)	C (A compound having a KD ratio of 0.1 or more and less than 3 is denoted as C)
24.7 nM	CCCN1C(=O)[C@@H]2CCN2C(=O)CN(C)C(=O)[C@H]([C@@H](C)CC)NC(=O)[C@H](CC(C)C)N(C)C(=O)C[C@@H](C(=O)N2CCOCC2)NC(=O)[C@H](C2CCCC2)N(C)C(=O)C2(CCC2)NC(=O)[C@@H]2C[C@@H](OCC)CN2C(=O)[C@H](CCc2ccc(C(F)(F)F)c(Cl)c2)NC(=O)CN(C)C(=O)[C@@H]1Cc1ccc(C(F)(F)F)cc1 [PP0354] ([NMeL]I[Sar][Aze][NPrPhe(4-CF3)][Sar][hPhe(3-Cl-4-CF3)][Hyp](Et)[Ac4c][NMeGly(cPent)]D-Morpholide; lactam N-11)	–	–	C (A compound having a KD ratio of 0.1 or more and less than 3 is denoted as C)	B (a compound having 3 or more and less than 10 is denoted as B)
